Laboratory results from US10300096B2, “Use of adenoviruses and nucleic acids that code for said viruses” (priority 2003, dated 2019).

Key:
Type in all cases: cell-based
U373 tumour cells [1] = assay: Replication of dl520 after addition of Irinotecan, Southern blot; details: 5 μM Irinotecan 24 hours before infection with 10 pfu/cell dl520, compared to untreated control
Experimental: In order to determine the effect of Irinotecan on adenoviral replication 10^6 U373 tumour cells were plated in 10 cm^2 Petri dishes. In a first reaction 5 μM Irinotecan was added after 24 hours. After another 24 hours the cells were infected with 10 pfu/cell dl520. After incubation of 3 days without Irinotecan DNA was isolated in accordance with the procedure described in example 10.
In a parallel reaction the thus prepared U373-cells were not pre-incubated with Irinotecan. After 48 hours of cultivating the cells without Irinotecan, they were infected with 10 pfu/cell dl520 and subsequently incubated without Irinotecan for another 3 days. DNA was isolated as described above.
Subsequently […] were digested with restriction enzyme Kpn I and a Southern Blot analysis performed. A part of the adenoviral genome (position: 22734-24235) generated by means of PCR was used as a probe.

U373 tumour cells [2] = assay: Replication of dl520 after administration of Trichostatin A, Southern blot; details: 0.25, 0.5 and 0.75 μM Trichostatin A 24 hours before infection with 10 pfu dl520/cell, compared to untreated controls
Experimental: In order to test the effect of Trichostatin A on adenoviral replication, 10^6 U373 tumour cells were plated in 10 cm^2 Petri dishes. After 24 hours 0, 0.25, 0.5 and 0.75 μM Trichostatin A was added. After another 24 hours the cells were infected with 10 pfu dl520/cell.
After 3 days of incubation in medium without Trichostatin DNA was isolated. Subsequently 2 μg DNA were digested with restriction enzyme Kpn I and a Southern Blot analysis performed. A part of the adenoviral genome (position: 22734-24235) generated by means of PCR was used as a probe.

[3] = system: coxsackievirus-adenovirus-receptor (CAR) on U373 cells; assay: CAR expression by Facs-analysis; details: 1 μM Trichostatin for 24 hours; 11.3% without treatment
Experimental: 200,000 U373 cells were plated in 6 well plates. After 24 hours the cells were cultivated with 1 μM Trichostatin for 24 hours. After another 24 hours the cells were isolated. Subsequently, analysis of CAR expression was performed according to a standard protocol using Facs-analysis and the primary antibody anti-CAR clone RmcB from the company Upstate, and a rabbit anti-mouse FITC as secondary antibody (company DAKO).

U2OS cells = assay: Oncolytic assay with daunorubicine and dl520, crystal violet; details: 40 ng/ml daunorubicine 3 hours before infection
Experimental: (§1) In the practising of the oncolytic assays the following procedure was followed: 200,000 cells (HeLa and U2OS, respectively) were plated into each well of a 6 well plate. On the next day 40 ng/ml (final concentration) of daunorubicine were added. After 3 hours of incubation the cells were infected with 10 and 30 pfu dl520/cell, respectively. Subsequently, the cells were incubated in cytostatic free medium. After 3-5 days the cells were stained using crystal violet.

HeLa cells = assay: as above; details: 40 ng/ml daunorubicine 3 hours before infection
Experimental: as §1

**Q.** With CCc1c2c(nc3ccc(OC(=O)N4CCC(N5CCCCC5)CC4)cc13)-c1cc3c(c(=O)n1C2)COC(=O)[C@]3(O)CC [Irinotecan] as the compound, how does the “adenoviral replication (dl520, Southern blot)” value (U373 tumour cells [1]) read?
**A.** significantly increased

**Q.** How did the “viral replication (dl520, Southern blot)” value (U373 tumour cells [2]) turn out when CC(/C=C/C(=O)NO)=C\[C@@H](C)C(=O)c1ccc(N(C)C)cc1 [Trichostatin A] was run?
**A.** significantly increased

**Q.** And the CAR-positive cells [3]?
**A.** 56.2%

**Q.** Which results are given for COc1cccc2c1C(=O)c1c(O)c3c(c(O)c1C2=O)C[C@@](O)(C(C)=O)C[C@@H]3O[C@H]1C[C@H](N)[C@H](O)[C@H](C)O1 [daunorubicine]?
**A.** effect on replication of dl520 (U2OS cells): induces the replication of dl520; effect on replication of dl520 (HeLa cells): induces the replication of dl520
